# US11002728B2, “Method for evaluating activity of G protein-coupled receptor (GPCR)” (RIKEN, priority 2017, dated 2021)
# Assays:
# mGluR3 [1] = molecular target: T1, mGluR3 (Mus musculus, UniProt Q9QYS2); experiment: Single-molecule imaging of mGluR3 diffusive dynamics (MSD, DAv, VB-HMM diffusion states) in HEK293 cells; conditions: for change of MSD of mGluR3: MSD-Δt plots, FIG. 1(c to e); for IC50: IC50 of the LY379268 dependent change of DAv
# Description: A DNA sequence encoding HaloTag7 (Promega Corporation) was amplified by PCR and was fused to the C-terminal sequence of mouse mGluR3 using In-Fusion HD Cloning Kit (Clontech Laboratories, Inc.). In order to quantify the expression level of HaloTag-fused mGluR3 by Western blotting, the epitope sequence of a monoclonal antibody Rho 1D4 recognizing the C-terminus of bovine rhodopsin was added immediately after the HaloTag sequence. Complementary DNAs of mGluR3 were inserted into a pCAG-GS vector^21.
# HEK293 cells were cultured in a DMEM/F12 (Gibco) medium added with 15 mM HEPES (pH 7.3), 29 mM NaHCO3, and 10% FBS at 37° C. in an environment containing 5% CO2. On the day before the observation, the HEK293 cells on a 60-mm dish (IWAKI) with a cover glass (Matsunami Glass Ind., Ltd.) were transfected with a plasmid DNA (pDNA) of HaloTag-fused mGluR3 using Lipofectamine 3000 (Invitrogen). A transfection reagent and pDNA (pDNA (0.1 μg), P3000 reagent (0.2 μL), Lipofectamine 3000 reagent (2.5 μL), Opti-MEM (120 μL, Gibco)) were mixed, and the mixture was then left to stand at room temperature for 15 minutes and was added to HEK293 cells on the 60-mm dish containing DMEM/F12 (3 mL). In two-color single-molecule measurement, pDNA (0.02 μg) of GFP-fused CLC was transfected together with HaloTag-fused mGluR3. After culturing at 37° C. in an environment containing 5% CO2 for 3 hours, the medium was replaced with DMEM (3 mL, Sigma) not containing phenol red and containing 10% FBS. After culturing overnight, the medium was replaced with 3 mL of DMEM containing 300 nM HaloTag TMR ligand (Promega Corporation) and not containing phenol red and FBS, followed by being left to stand at 37° C. in an environment containing 5% CO2 for 30 minutes to specifically stain the HaloTag-fused mGluR3 of the HEK293 cells. […] In single-molecule imaging, the cover glass was placed in a metal chamber (Invitrogen) and was washed with 400 μL of Hanks' balanced salt solution (HBSS (Sigma); containing 15 mM HPEPS (pH 7.1) and not containing NaHCO3) five times, followed by observation at room temperature (25° C.). TMR-labeled mGluR3 on the cell membranes of the HEK293 cells were excited with total internal reflection illumination on an inverted fluorescence microscope (TE2000, Nikon Corporation), and single-molecule imaging was performed. […] The fluorescences of TMR and GFP were wavelength dependently separated with dichroic mirror 59004b (Chroma) in a two-optical path branching system (M202J, Nikon Corporation), were allowed to pass through a band pass filter (GFP: ET525/50m, TMR: ET605/70m, Chroma), and were then photographed simultaneously by two EM-CCD cameras (ImagEM, Hamamatsu Photonics K.K.).
# mGluR3 [2] = molecular target: T1, mGluR3; experiment: [3H]-LY341495 binding experiment, HEK293 membrane fraction expressing mGluR3
# Description: HEK293 cells cultured to about 40% confluence in a 100-mm dish were transfected with mGluR3 pDNA and an empty pCAG vector as a mock each at 10 μg/dish by a calcium phosphate method. After the transfection, the cells were cultured in DMEM/F12 medium containing 10% FBS for 48 hours and were then collected, followed by centrifugation. The precipitation was washed with 1 mL of PBS (pH 7.4). Centrifugation was further performed. The precipitation was placed in a 1.5-mL tube and was homogenized with a pellet mixer in buffer A (50 mM HEPES (pH 6.5), 140 mM NaCl) in which 50% sucrose was dissolved, followed by centrifugation to separate supernatant and precipitate. […]
# A cell membrane fraction containing mGluR3 was resuspended in HBSS (containing 15 mM HEPES (pH 7.1) and not containing NaHCO3, Sigma) having the same composition as that used in the single-molecule measurement, and the binding of [^3H]-LY341495 to the membrane was measured at room temperature. […] Each dot was excised from the nitrocellulose membrane and was placed in a cocktail for a liquid scintillation counter (Ultima Gold, PerkinElmer Life Sciences, Inc.), and the binding amount of [^3H]-LY341495 was quantified with LS6500 (Beckman Coulter). […] Kd was calculated from fitting result by an expression obtained by replacing the EC50 in Expression 3 mentioned above with kd. […] The IC50 was calculated based on Expression 4.
# mGluR3 [3] = molecular target: T1, mGluR3; experiment: [35S]-GTPγS binding experiment (G protein activation ability of mGluR3, purified Go protein); assay type: biochemical; design: expressed in transfected cells; host or cells: HEK293 (pCAG-GS vector)
# Description: Each mixture was left to stand at 20° C. for 30 minutes. [^35S]-GTPγS was added to the mixture to start GDP/GTPγS exchange reaction. The composition except the ligand of the final mixture solution (20 μL) was 50 mM HEPES (pH 6.5), 140 mM NaCl, 5 mM MgCl2, 0.01% DM, 0.03% sodium cholate, 5 nM [^35S]-GTPγS, 500 nM GTPγS (cold), and 500 nM GDP. A reaction stop solution (200 μL, 20 mM Tris/Cl (pH 7.4), 100 mM NaCl, 25 mM MgCl2, 500 nM GTPγS (cold), and 500 nM GDP) was added to the mixture solution at 30 seconds after the addition of [^35S]-GTPγS to stop the incorporation of [^35S]-GTPγS into G protein, and immediately all the reaction solution was passed through a nitrocellulose membrane with the dot-blot apparatus to separate [^35S]-GTPγS bound to G protein. Subsequently, the nitrocellulose membrane was washed with buffer C (200 μL, 20 mM Tris/Cl (pH 7.4), 100 mM NaCl, and 25 mM MgCl2) three times and was dried for 1 hour. Each dot was excised from the nitrocellulose membrane and was placed in a cocktail for a liquid scintillation counter (Ultima Gold, PerkinElmer Life Sciences, Inc.), and the binding amount of [^35S]-GTPγS was quantified with LS6500 (Beckman Coulter).
# HRH1 = HRH1 (Homo sapiens, UniProt P35367); conditions: HRH1 in HEK293 cells, 1 μM ligand, mean ± standard error, n=20 cells; vehicle 0.064
# F2R = F2R (Homo sapiens, UniProt P25116); conditions: F2R in HEK293 cells, 10 μM ligand, mean ± standard error, n=20 cells; vehicle 0.084
# FFAR4 = molecular target: T2, FFAR4 (Homo sapiens, UniProt Q5NUL3); experiment: Single-molecule imaging of GPCR diffusive dynamics (DAv) in HEK293 cells; assay type: cell-based; conditions: 100 nM ligand, mean ± standard error, n=20 cells, vehicle 0.083
# T2 construct: host or cells: HEK293
# T2 sequence (Q5NUL3 1-361): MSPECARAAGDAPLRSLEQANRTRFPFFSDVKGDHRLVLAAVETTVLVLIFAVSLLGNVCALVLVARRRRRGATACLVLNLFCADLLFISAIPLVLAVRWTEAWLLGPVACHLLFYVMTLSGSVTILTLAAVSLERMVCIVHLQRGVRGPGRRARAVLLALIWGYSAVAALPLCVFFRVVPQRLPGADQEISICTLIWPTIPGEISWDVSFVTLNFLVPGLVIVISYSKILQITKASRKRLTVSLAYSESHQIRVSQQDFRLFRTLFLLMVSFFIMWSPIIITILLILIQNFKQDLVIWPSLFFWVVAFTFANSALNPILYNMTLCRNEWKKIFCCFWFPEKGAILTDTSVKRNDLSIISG
# HTR2A = HTR2A (Homo sapiens, UniProt P28223); experiment: as above; assay type: cell-based; conditions: 10 μM ligand, mean ± standard error, n=20 cells, vehicle 0.079
# mGluR3 [4] = molecular target: T1, mGluR3; experiment: Two-color single-molecule imaging, colocalization of TMR-labeled mGluR3 and GFP-labeled CLC; assay type: cell-based; design: expressed in transfected cells; host or cells: HEK293 (pCAG-GS vector); conditions: active (100 μM LY379268) versus inactive state (100 nM LY341495)
# Description: Colocalization of TMR-labeled mGluR3 and GFP-labeled CLC was defined as a track in which each bright spot was within 100 nm in the same frame. The positional accuracy of the bright spot tracking of TMR-labeled mGluR3 and GFP-labeled CLC was estimated to be 28 nm and 31 nm, respectively, from measurement of fixed samples. These values correspond to 1 SD of the displacement when fixed molecules were tracked. After image processing, the error between the positions of the same gold particle in two channels was estimated to be 18 nm. Accordingly, 100 nm corresponds to about 2 SD of the positional accuracy considering the total error. The time constant of colocalization was calculated by fitting the cumulative frequency distribution (FIG. 9(f)) by Expression 8.
# The proportion of each component was calculated from the proportions of A1 and A2.
# CXCR4 = molecular target: T3, CXCR4 (Homo sapiens, UniProt P61073); experiment: Single-molecule imaging of GPCR diffusive dynamics (DAv) in HEK293 cells; assay type: cell-based; conditions: 20 nM ligand, mean ± standard error, n=20 cells, vehicle 0.087
# T3 construct: host or cells: HEK293
# T3 sequence (P61073 whole entry): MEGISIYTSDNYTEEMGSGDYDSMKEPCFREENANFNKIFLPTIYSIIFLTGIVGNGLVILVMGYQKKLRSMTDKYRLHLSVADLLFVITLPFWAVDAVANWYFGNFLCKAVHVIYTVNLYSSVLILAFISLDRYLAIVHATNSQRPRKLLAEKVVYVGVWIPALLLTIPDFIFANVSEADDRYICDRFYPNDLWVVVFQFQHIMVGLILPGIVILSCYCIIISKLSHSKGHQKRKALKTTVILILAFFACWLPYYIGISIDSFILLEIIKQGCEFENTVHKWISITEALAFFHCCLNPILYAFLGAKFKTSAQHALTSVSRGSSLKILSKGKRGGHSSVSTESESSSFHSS
# Description: HEK293 cells were cultured in a DMEM/F12 (Gibco) medium added with 15 mM HEPES (pH 7.3), 29 mM NaHCO3, and 10% FBS at 37° C. in an environment containing 5% CO2. On the day before the observation, the HEK293 cells on a 60-mm dish (IWAKI) with a cover glass (Matsunami Glass Ind., Ltd.) were transfected with a plasmid DNA (pDNA) of HaloTag-fused mGluR3 using Lipofectamine 3000 (Invitrogen). A transfection reagent and pDNA (pDNA (0.1 μg), P3000 reagent (0.2 μL), Lipofectamine 3000 reagent (2.5 μL), Opti-MEM (120 μL, Gibco)) were mixed, and the mixture was then left to stand at room temperature for 15 minutes and was added to HEK293 cells on the 60-mm dish containing DMEM/F12 (3 mL). […] After culturing at 37° C. in an environment containing 5% CO2 for 3 hours, the medium was replaced with DMEM (3 mL, Sigma) not containing phenol red and containing 10% FBS. […] TMR-labeled mGluR3 on the cell membranes of the HEK293 cells were excited with total internal reflection illumination on an inverted fluorescence microscope (TE2000, Nikon Corporation), and single-molecule imaging was performed. […]
# T1 sequence (Q9QYS2 23-879): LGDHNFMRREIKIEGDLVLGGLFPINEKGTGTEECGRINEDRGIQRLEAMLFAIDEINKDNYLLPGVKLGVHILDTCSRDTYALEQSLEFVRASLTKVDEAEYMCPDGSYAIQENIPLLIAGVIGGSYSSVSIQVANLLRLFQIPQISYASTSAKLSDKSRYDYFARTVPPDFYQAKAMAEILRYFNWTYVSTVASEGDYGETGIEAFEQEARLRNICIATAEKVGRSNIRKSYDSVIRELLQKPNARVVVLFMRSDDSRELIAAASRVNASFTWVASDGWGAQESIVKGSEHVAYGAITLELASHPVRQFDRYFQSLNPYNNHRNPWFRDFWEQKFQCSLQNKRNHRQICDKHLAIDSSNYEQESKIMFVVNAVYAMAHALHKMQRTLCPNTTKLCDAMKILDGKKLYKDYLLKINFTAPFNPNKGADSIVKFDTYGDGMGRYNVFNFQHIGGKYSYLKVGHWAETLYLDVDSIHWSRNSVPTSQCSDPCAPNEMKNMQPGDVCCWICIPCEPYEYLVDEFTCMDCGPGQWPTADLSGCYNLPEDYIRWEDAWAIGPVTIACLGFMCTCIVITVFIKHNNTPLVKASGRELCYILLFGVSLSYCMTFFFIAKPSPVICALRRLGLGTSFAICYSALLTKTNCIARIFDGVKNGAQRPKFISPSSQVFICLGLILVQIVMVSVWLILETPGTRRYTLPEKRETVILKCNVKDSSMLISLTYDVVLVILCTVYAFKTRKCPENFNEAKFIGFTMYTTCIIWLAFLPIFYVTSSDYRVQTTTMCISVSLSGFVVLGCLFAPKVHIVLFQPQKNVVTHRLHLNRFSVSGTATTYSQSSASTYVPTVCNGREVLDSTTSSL
# HTR2A, sequence (P28223 whole entry): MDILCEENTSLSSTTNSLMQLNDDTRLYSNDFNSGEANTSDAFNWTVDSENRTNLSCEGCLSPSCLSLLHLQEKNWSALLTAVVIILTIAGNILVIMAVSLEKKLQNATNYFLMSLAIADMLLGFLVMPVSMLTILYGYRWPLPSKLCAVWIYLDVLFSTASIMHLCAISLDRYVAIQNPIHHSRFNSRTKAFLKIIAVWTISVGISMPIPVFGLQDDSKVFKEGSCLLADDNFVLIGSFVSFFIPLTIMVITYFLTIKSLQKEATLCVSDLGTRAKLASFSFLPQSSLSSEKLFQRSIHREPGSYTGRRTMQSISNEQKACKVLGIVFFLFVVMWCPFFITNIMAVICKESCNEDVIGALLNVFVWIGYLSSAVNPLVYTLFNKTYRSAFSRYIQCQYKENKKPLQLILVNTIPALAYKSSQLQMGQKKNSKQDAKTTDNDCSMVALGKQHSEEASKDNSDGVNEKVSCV
# HRH1, sequence (P35367 whole entry): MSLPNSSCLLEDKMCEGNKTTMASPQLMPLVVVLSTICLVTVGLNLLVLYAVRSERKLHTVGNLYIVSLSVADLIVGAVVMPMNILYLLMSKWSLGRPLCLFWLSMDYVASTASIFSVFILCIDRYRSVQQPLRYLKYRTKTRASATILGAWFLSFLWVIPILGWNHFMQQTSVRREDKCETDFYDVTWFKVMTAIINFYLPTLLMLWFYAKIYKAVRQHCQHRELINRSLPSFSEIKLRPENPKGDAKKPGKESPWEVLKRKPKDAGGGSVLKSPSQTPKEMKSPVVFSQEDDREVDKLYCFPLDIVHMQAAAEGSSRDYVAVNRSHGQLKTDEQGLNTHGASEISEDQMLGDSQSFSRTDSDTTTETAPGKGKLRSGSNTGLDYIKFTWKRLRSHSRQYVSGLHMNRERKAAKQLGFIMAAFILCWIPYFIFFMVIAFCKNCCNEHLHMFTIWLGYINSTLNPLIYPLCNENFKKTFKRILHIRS
# F2R, sequence (P25116 22-425): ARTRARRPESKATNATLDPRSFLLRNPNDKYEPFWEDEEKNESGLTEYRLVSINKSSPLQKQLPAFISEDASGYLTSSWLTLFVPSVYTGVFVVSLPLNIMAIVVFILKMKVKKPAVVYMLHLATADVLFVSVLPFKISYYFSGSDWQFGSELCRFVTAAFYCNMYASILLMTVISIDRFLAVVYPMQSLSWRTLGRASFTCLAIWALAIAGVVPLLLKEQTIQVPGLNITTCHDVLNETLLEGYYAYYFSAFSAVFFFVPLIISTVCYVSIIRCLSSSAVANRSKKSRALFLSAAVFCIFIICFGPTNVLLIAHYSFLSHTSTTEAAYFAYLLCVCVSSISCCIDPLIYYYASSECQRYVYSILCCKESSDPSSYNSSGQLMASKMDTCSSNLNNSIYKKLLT
compound,measurement,setting,value
MNI137,effect on LY379268 concentration-dependent change of DAv,"mGluR3 [1]; 1 μM, presence of 100 nM LY341495, FIG. 4(b)",the LY379268 concentration-dependent decrease of DAv was suppressed
same,change of MSD of mGluR3,mGluR3 [1]; n=20 cells,the LY379268-dependent decrease of the MSD was suppressed
same,influence on the binding affinity of LY379268,"mGluR3 [2]; 1 μM MNI137, competition with 100 nM [3H]-LY341495, FIG. 4(d)",did not influence the binding affinity of LY379268
same,effect on LY379268-dependent G protein activation ability,"mGluR3 [3]; 1 μM MNI137, 100 nM LY341495 present, FIG. 4(f)",suppresses the LY379268-dependent increase of G protein activation ability
NCCc1c[nH]cn1 [histamine],"DAv, Ligand",HRH1,0.045 ± 0.0025 μm^2/s
TRAP-6,"DAv, Ligand",F2R,0.060 ± 0.0017 μm^2/s
CC/C=C\C/C=C\C/C=C\C/C=C\C/C=C\C/C=C\CCC(=O)O [DHA],"DAv, Ligand",FFAR4,0.048 ± 0.0073 μm^2/s
NCCc1c[nH]c2ccc(O)cc12 [serotonine],"DAv, Ligand",HTR2A,0.065 ± 0.0034 μm^2/s
N[C@@]1(C(=O)O)CO[C@H]2[C@H](C(=O)O)[C@H]21 [LY379268],IC50,"mGluR3 [1]; FIG. 4(a), absence of other ligands, n=20 cells",1190 ± 20 nM
same,IC50,"mGluR3 [1]; FIG. 4(b), presence of 100 nM LY341495, n=20 cells",1030 ± 80 nM
same,change of MSD of mGluR3,mGluR3 [1]; n=20 cells,decreased depending on the concentration
same,ligand-dependent change of the proportions of the diffusion states (VB-HMM),"mGluR3 [1]; concentration dependent, FIG. 5(c, d)",increases in the immobile and slow states and a decrease in the fast state
same,"DAv, Ligand","mGluR3 [1]; mGluR3 in HEK293 cells, 100 μM ligand, mean ± standard error, n=20 cells, vehicle 0.047",0.039 ± 0.0018 μm^2/s
same,increase in the colocalization probability of mGluR3 and CLC,mGluR3 [4]; FIG. 10(e),about 1.6 fold
same,increase of the Long-time constant of colocalization of mGluR3 and CLC,mGluR3 [4]; FIG. 10(g),about two-fold
same,IC50,mGluR3 [2],550 ± 80 nM
same,EC50,"mGluR3 [3]; absence of other ligands, FIG. 4(e), n=3, read-out: EC50 of the LY379268-dependent increase of the G protein activation ability of mGluR3",25 ± 2.9 nM
"CXCL12: chemokine, agonist used on CXCR4","DAv, Ligand",CXCR4,0.068 ± 0.0017 μm^2/s
